The source of these data is patent publication US9499502B2, “5-substituted iminothiazines and their mono- and dioxides as BACE inhibitors, compositions, and their use” (Merck Sharp & Dohme Corp., priority 2011, dated 2016).

A value given as a limit tells only on which side of the number the result lay.

The term Ki denotes a dissociation constant, usually derived from enzyme kinetics or from competition with a known ligand.

Chain of soluble human BACE1 catalytic domain (P56817 75-416): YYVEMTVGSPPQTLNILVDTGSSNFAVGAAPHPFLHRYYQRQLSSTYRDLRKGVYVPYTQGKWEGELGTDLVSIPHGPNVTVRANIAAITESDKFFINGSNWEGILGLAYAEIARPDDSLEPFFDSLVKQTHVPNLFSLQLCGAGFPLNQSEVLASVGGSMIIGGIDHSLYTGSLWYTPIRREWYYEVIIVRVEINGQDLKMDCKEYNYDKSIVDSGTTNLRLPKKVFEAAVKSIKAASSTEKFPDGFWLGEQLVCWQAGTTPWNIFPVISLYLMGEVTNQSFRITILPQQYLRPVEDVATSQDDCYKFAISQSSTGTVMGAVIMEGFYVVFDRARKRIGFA
Chain of purified human autoBACE-2 (Q9Y5Z0 63-473): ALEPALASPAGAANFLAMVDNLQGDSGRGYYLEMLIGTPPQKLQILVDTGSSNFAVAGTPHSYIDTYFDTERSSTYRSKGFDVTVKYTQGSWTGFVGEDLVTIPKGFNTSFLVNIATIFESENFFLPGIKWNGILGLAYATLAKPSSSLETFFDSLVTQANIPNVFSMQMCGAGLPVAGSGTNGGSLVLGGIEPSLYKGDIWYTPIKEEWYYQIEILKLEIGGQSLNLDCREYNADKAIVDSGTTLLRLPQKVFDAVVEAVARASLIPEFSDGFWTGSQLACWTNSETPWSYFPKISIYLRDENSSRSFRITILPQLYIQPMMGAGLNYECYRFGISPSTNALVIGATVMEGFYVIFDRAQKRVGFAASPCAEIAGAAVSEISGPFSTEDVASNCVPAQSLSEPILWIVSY

One assay addresses purified human autoBACE-2 (Homo sapiens (Human), UniProt Q9Y5Z0). Nature of the assay: BACE-2 Assay (BACE-HTRF assay). The class given is biochemical. Conditions: Ki calculated from IC50 using the Cheng-Prusoff equation; read-out: BACE2 Ki. On the procedure:
Inhibitor IC50s at purified human autoBACE-2 are determined in a time-resolved endpoint proteolysis assay that measures hydrolysis of the QSY7-[…]-Eu-amide FRET peptide substrate (BACE-HTRF assay). […] DMSO is present at 5% final concentration in the assay. Following laser excitation of sample wells at 320 nm, the fluorescence signal at 620 nm is collected for 400 ms following a 50 μs delay on a RUBYstar HTRF plate reader (BMG Labtechnologies). Raw RFU data is normalized to maximum (1.0 nM BACE/DMSO) and minimum (no enzyme/DMSO) RFU values. […] The Ki values are calculated from the IC50 using the Cheng-Prusoff equation.
As for `CC1(C)C(N)=N[C@](C)(c2cc(Br)ccc2F)CS1(=O)=O` [Example 3-3], the Ki was 500 to 10000 nM. On the same count and under the same terms, under `COc1cccc2cc(C(=O)Nc3ccc(F)c([C@]4(C)CS(=O)(=O)[C@@](C)(CC5CCOCC5)C(=N)N4)c3)[nH]c12` [Example 9cu-a] stands 11 to 100 nM; under `CC1(C)C(=N)N[C@](C)(c2sc(-c3cc(Cl)cc(C#N)c3)cc2Cl)CS1(=O)=O` [Example 27s], ≤ 10 nM; under `CC1(C)C(=N)N[C@](C)(c2nc(NC(=O)c3cnc(C(F)F)cn3)ccc2F)CS1(=O)=O` [Example 9cj], 21 nM. As for `COc1cccc2cc(-c3ccc(F)c([C@]4(C)CS(=O)(=O)C(C)(C)C(=N)N4)c3)[nH]c12` [compound 11], the Ki is < 200 nM. In the case of `COc1cnc(C(=O)Nc2ccc(F)c([C@]3(C)CS(=O)(=O)[C@](C)(c4cc(C(F)(F)F)ccn4)C(=N)N3)c2)cn1` [Example 9ee-b], the Ki is 11 to 100 nM. Still for that read-out and setting: under `CC[C@]1(C)C(=N)N[C@](C)(c2cc(NC(=O)c3cnc(OC)cn3)ccc2F)CS1(=O)=O` [Example 9cn-b] stands 11 to 100 nM; under `CC1(C)C(=N)N[C@](C)(c2sc(-c3cccc(-c4nnco4)c3)cc2Cl)CS1(=O)=O` [Example 27ae], 21 nM; under `C[C@@]1(c2cc(NC(=O)c3ccc(Cl)cn3)ccc2F)CS(=O)(=O)[C@@](C)(c2cccc(F)c2)C(=N)N1` [Example 9db-b], 11 to 100 nM. `CC1(C)C(=N)N[C@](C)(c2cc(NC(=O)c3cnc(OCC4CC4)cn3)ccc2F)CS1(=O)=O` [Example 9p]: the Ki was 16 nM. Regarding `CC[C@]1(C)C(=N)N[C@](C)(c2cc(NC(=O)c3ccc(OC)cn3)ccc2F)CS1(=O)=O` [Example 9cm-b], the Ki was 11 to 100 nM.

A further assay concerns the target soluble human BACE1 catalytic domain (Homo sapiens (Human), UniProt P56817). Nature of the assay: BACE1 HTRF FRET Assay. The settings on record: read-out: BACE1 % Inh. at 10 μM, at 10 μM. In general terms: In TR-FRET formats the signal depends on donor and acceptor labels being close together.
Turning to `CC1(C)C(=N)N[C@](C)(c2nc(-c3cncc(C#N)c3)ccc2F)CS1(=O)=O` [Example 16d], the inhibition at 10 µM was 29%.

The assay is the same for the next values; noted with them: read-out: BACE1 Ki.
Regarding `CC1(C)C(=N)N[C@](C)(c2sc(-c3cc(Cl)cc(C#N)c3)cc2Cl)CS1(=O)=O` [Example 27s], the Ki came out at 64.9 nM. Take `CC1(C)C(=N)N[C@](C)(c2sc(-c3nnc(-c4ccc(C#N)cc4)o3)cc2F)CS1(=O)=O` [Example 27bi]: the Ki amounted to 48.9 nM. With `COc1cccc2nc(-c3cc(Cl)c([C@]4(C)CS(=O)(=O)C(C)(C)C(=N)N4)s3)cn12` [Example 28c], the Ki is 108 nM. Regarding `CC1(C)C(=N)N[C@](C)(c2cc(-c3cccc(-c4cnco4)c3)cs2)CS1(=O)=O` [Example 27ai], the Ki is 74 nM. Turning to `CC1(C)C(=N)N[C@](C)(c2sc(-c3ccc(C#N)c(C(F)(F)F)c3)cc2Cl)CS1(=O)=O` [Example 27t], the inhibitory constant (Ki) is 291 nM.

The assay is the same for the next values; noted with them: read-out: BACE1 Ki; Ki calculated from IC50 using the Cheng-Prusoff equation.
Regarding `COc1cccc2cc(C(=O)Nc3ccc(F)c([C@]4(C)CS(=O)(=O)[C@@](C)(CC5CCOCC5)C(=N)N4)c3)[nH]c12` [Example 9cu-a], the Ki is 46.7 nM. The same measure, in the same setting: under `CC1(C)C(=N)N[C@](C)(c2nc(NC(=O)c3ccncn3)ccc2F)CS1(=O)=O` [Example 9ch] stands 101 nM; under `CC1(C)C(=N)N[C@](C)(c2cc(NC(=O)C3CC3)ccc2F)CS1(=O)=O` [Example 9am], 359 nM; under `CC1(C)C(=N)N[C@](C)(c2sc(C(=O)NCc3ncc(F)cc3Cl)cc2Cl)CS1(=O)=O` [Example 22o], 1180 nM. The same measure, in the same setting: under `COc1cnc(C(=O)Nc2ccc(F)c([C@]3(C)CS(=O)(=O)[C@@](C)(CC4CCOCC4)C(=N)N3)c2)cn1` [Example 9ct-a] stands 3.9 nM; under `CC1(C)C(=N)N[C@](C)(c2cc(NC(=O)c3ccn(C(F)F)n3)ccc2F)CS1(=O)=O` [Example 9j], 0.6 nM; under `CC1(C)C(=N)N[C@](C)(c2sc(-c3cncc(-c4cnco4)c3)cc2Cl)CS1(=O)=O` [Example 27ac], 22.3 nM. For `CC1(C)C(=N)N[C@](C)(c2cc(NC(=O)[C@H]3CCCO3)cc(F)c2F)CS1(=O)=O` [Example 9bm], the inhibitory constant (Ki) was 218 nM. Still for that read-out and setting: under `COc1ccc(C(=O)Nc2ccc(F)c([C@]3(C)CS(=O)(=O)C(C)(C)C(=N)N3)n2)nc1` [Example 9ce] stands 55.1 nM; under `COc1ccc(C(=O)Nc2cc(F)c(F)c([C@]3(C)CS(=O)(=O)C(C)(C)C(=N)N3)c2)nc1` [Example 9m], 7.6 nM.

The assay is the same for the next values; noted with them: read-out: BACE1 inhibition, % Inh. at 10 μM, at 10 μM.
On to `CC1(C)C(N)=N[C@](C)(c2cc(Br)ccc2F)CS1(=O)=O` [Example 3-3], for which the inhibition at 10 µM is 56%.
